Structures can show the parent of a compound that is named as a salt. *1 amine or outer side, *2 acyl side, *3 side chain or, on linkers, in order; H or OH if unused. Where a SMILES comes first, the peptide text is derived from it. Bridges are numbered along the chain shown (N, C = ends). Roman numbers before positions name the chains, in order. [ ]: non-standard residue; d: D form. Actinocin(9to1) = Cc1c2oc3c(C)ccc(C(=O)[*:1])c3nc-2c(C(=O)[*:2])c(N)c1=O; NMeV = CN[C@H](C(=O)O)C(C)C; Sar = CNCC(=O)O
What was measured:
[1] = system: Wildtype AUXB1 Chinese hamster ovary cells; assay: In vitro cytotoxicity of potentiating agents, MTT absorbance (wildtype CHO); details: AUXB1, 96 h, Act D alone = 1.00
[2] = as above; details: chinese hamster, auxb1 cells
[3] = In vitro cytotoxicity of potentiating agents, MTT absorbance (wildtype KB); details: human, kb 3-1 cells
Description: (§1) After 48 hours of incubation at 37° C., the media is changed and cells are treated with actinomycin D at 0.1 nM (3-1) or 20 nM (V-1). The test potentiating agent is introduced to one-half the untreated cultures and one-half the Act D treated cultures at 1 and 10 μM. After 96 hours of additional incubation at 37° C., 0.5 mg/ml MTT dye is added, the cells are incubated for three hours, after which the cells are dissolved in DMSO, and the absorbance is then read at 570 nm.

[4] = system: Wildtype KB 3-1 human KB epidermoid carcinoma cells; assay: as above; details: KB 3-1, 96 h, Act D alone = 1.00
Description: as §1

[5] = In vitro cytotoxicity of potentiating agents, MTT absorbance (drug resistant CHO); details: chinese hamster, c5s32 cells
[6] = system: Drug Resistant C5S32 Chinese hamster ovary cells; assay: as above; details: for Normalized absorbance (surviving cells), potentiating agent + ACT D, fraction of Act D alone: C5S32, 96 h, Act D alone = 1.00
[7] = In vitro cytotoxicity of potentiating agents, MTT absorbance (drug resistant KB); details: human, kb v-1 cells
Description: as §1

[8] = system: Drug Resistant KB V-1 human KB epidermoid carcinoma cells; assay: as above; details: KB V-1, 96 h, Act D alone = 1.00
Description: as §1

[9] = system: Chinese hamster ovary cells (AuxBl and C5S32); assay: Reduction in cell number by Act D alone, MTT absorbance; details: Cricetulus griseus, CHO, read-out: reduction in cell number below the value of completely untreated cultures
[10] = system: resistant sublines of murine leukemia cells; details: Tsuruo et al., Cancer Res.; cited from earlier work

Question: What does the source list for `COc1ccc(CN(CCN(C)C)c2cccc(/C=C/C(=O)O)n2)cc1` [(A), (E)-3-(6-(N-(2-Dimethylaminoethyl)-4-methoxybenzyl-amino)-2-pyridyl)acrylic acid]?
Answer: Normalized absorbance (surviving cells), potentiating agent + ACT D, fraction of Act D alone ([1]; 1 μM + Act D 0.01 μM): 0.64; Normalized absorbance (surviving cells), potentiating agent + ACT D, fraction of Act D alone ([1]; 10 μM + Act D 0.01 μM): 0.05; viability at 96 h, 1 µM [2]: 100%; viability at 96 h, 10 µM [2]: 41%; viability at 96 h, 1 µM [3]: 100%; viability at 96 h, 10 µM [3]: 99%; Normalized absorbance (surviving cells), potentiating agent + ACT D, fraction of Act D alone ([4]; 1 μM + Act D 0.1 nM): 0.96; Normalized absorbance (surviving cells), potentiating agent + ACT D, fraction of Act D alone ([4]; 10 μM + Act D 0.1 nM): 0.97; viability at 96 h, 1 µM [5]: 68%; viability at 96 h, 10 µM [5]: 28%; Normalized absorbance (surviving cells), potentiating agent + ACT D, fraction of Act D alone ([6]; 1 μM + Act D 0.5 μM): 1.00; Normalized absorbance (surviving cells), potentiating agent + ACT D, fraction of Act D alone ([6]; 10 μM + Act D 0.5 μM): 0.13; viability at 96 h, 1 µM [7]: 70%; viability at 96 h, 10 µM [7]: 73%; Normalized absorbance (surviving cells), potentiating agent + ACT D, fraction of Act D alone ([8]; 1 μM + Act D 20 nM): 0.85; Normalized absorbance (surviving cells), potentiating agent + ACT D, fraction of Act D alone ([8]; 10 μM + Act D 20 nM): 0.80

Question: For `COc1ccc(CN(CCN(C)C)c2ccc(Br)cn2)cc1` [(B), N-(5-Bromo-2-pyridyl)-N-(4-methoxybenzyl)-N',N'-dimethyl-1,2-ethanediaminehydrobromide], which “Normalized absorbance (surviving cells), potentiating agent + ACT D, fraction of Act D alone” value (from here on “Normalized absorbance … fraction of Act D alone”) ([1]; 1 μM + Act D 0.01 μM) is on record?
Answer: 1.00

Question: What about the “Normalized absorbance … fraction of Act D alone” value ([1]; 10 μM + Act D 0.01 μM) of the same compound?
Answer: 1.00

Question: And the viability at 96 h, 1 µM [2]?
Answer: 100%

Question: And the viability at 96 h, 10 µM [2]?
Answer: 100%

Question: What about the viability at 96 h, 1 µM [3] of the same compound?
Answer: 97%

Question: And the viability at 96 h, 10 µM [3]?
Answer: 86%

Question: What about the “Normalized absorbance … fraction of Act D alone” value ([4]; 1 μM + Act D 0.1 nM) of the same compound?
Answer: 0.89

Question: What about the “Normalized absorbance … fraction of Act D alone” value ([4]; 10 μM + Act D 0.1 nM) of the same compound?
Answer: 0.92

Question: What about the viability at 96 h, 1 µM [5] of the same compound?
Answer: 100%

Question: And the viability at 96 h, 10 µM [5]?
Answer: 91%

Question: And the “Normalized absorbance … fraction of Act D alone” value ([6]; 1 μM + Act D 0.5 μM)?
Answer: 1.00

Question: What about the “Normalized absorbance … fraction of Act D alone” value ([6]; 10 μM + Act D 0.5 μM) of the same compound?
Answer: 0.56

Question: And the viability at 96 h, 1 µM [7]?
Answer: 77%

Question: What about the viability at 96 h, 10 µM [7] of the same compound?
Answer: 56%

Question: What about the “Normalized absorbance … fraction of Act D alone” value ([8]; 1 μM + Act D 20 nM) of the same compound?
Answer: 0.85

Question: And the “Normalized absorbance … fraction of Act D alone” value ([8]; 10 μM + Act D 20 nM)?
Answer: 0.80

Question: For `Cc1c2oc3c(C)ccc(C(=O)N[C@@H]4C(=O)N[C@H](C(C)C)C(=O)N5CCC[C@H]5C(=O)N(C)CC(=O)N(C)[C@@H](C(C)C)C(=O)O[C@@H]4C)c3nc-2c(C(=O)N[C@@H]2C(=O)N[C@H](C(C)C)C(=O)N3CCC[C@H]3C(=O)N(C)CC(=O)N(C)[C@@H](C(C)C)C(=O)O[C@@H]2C)c(N)c1=O` [Actinomycin D, reference compound] (I: T[dV]P[Sar][NMeV] / II: T[dV]P[Sar][NMeV]; ester I:1-I:C, II:1-II:C; linker I:N-II:N via Actinocin(9to1)), which “resistance of C5S32 cells to Actinomycin D compared to the parental AuxBI cell line” value ([6]; C5S32 vs parental AuxBI) is on record?
Answer: about 200 fold

Question: And the inhibition at 0.01 µM [9]?
Answer: 10 to 20%

Question: Which “enhance the activity of antitumor agents against resistant sublines of murine leukemia cells” value (“enhance the activity of antitumor agents” below) [10] does the source give for `COc1ccc(CCN(C)CCCC(C#N)(c2ccc(OC)c(OC)c2)C(C)C)cc1OC` (centres unmarked) [Verapamil] here?
Answer: enhance the activity of antitumor agents against resistant sublines of murine leukemia cells

Question: Which “enhance the activity of antitumor agents” value [10] does the source give for `CCN(CC)CCn1c(=O)c(Cc2ccc(OC)cc2)nc2ccccc21` [caroverine] here?
Answer: enhance the activity of antitumor agents against resistant sublines of murine leukemia cells

Question: For `CN(C)CCCN1c2ccccc2CCc2ccc(Cl)cc21` [clomipramine], which “enhance the activity of antitumor agents” value [10] is on record?
Answer: enhance the activity of antitumor agents against resistant sublines of murine leukemia cells

Question: With `COc1ccc([C@@H]2Sc3ccccc3N(CCN(C)C)C(=O)[C@@H]2OC(C)=O)cc1` [diltiazem] as the compound, how does the “enhance the activity of antitumor agents” value [10] read?
Answer: enhance the activity of antitumor agents against resistant sublines of murine leukemia cells

Question: With `COC(=O)C1=C(C)NC(C)=C(C(=O)OCCN(C)Cc2ccccc2)C1c1cccc([N+](=O)[O-])c1` (centres unmarked) [nicardipine] as the compound, how does the “enhance the activity of antitumor agents” value [10] read?
Answer: enhance the activity of antitumor agents against resistant sublines of murine leukemia cells

Question: For `C=C[C@H]1C[N@@]2CC[C@H]1C[C@@H]2[C@@H](O)c1ccnc2ccc(OC)cc12` [quinidine], which “enhance the activity of antitumor agents” value [10] is on record?
Answer: enhance the activity of antitumor agents against resistant sublines of murine leukemia cells

Question: With `CN1CCN(CCCN2c3ccccc3Sc3ccc(C(F)(F)F)cc32)CC1` [trifluoperazine] as the compound, how does the “enhance the activity of antitumor agents” value [10] read?
Answer: enhance the activity of antitumor agents against resistant sublines of murine leukemia cells

From US5124339A, “Agents for potentiating the effects of antitumor agents and combating multiple drug resistance” (Burroughs Wellcome Company, priority 1989, dated 1992)
